Assay results from paper PMC2760094 (Journal of medicinal chemistry, 2009).

Key:
[1] = tested on: Melanoma (A 375, B16-F1) and Prostate Cancer Cells (DU145, PC-3, LNCaP, PPC-1); test: Antiproliferative activity over melanoma and prostate cancer cell lines; type: cell-based, human and mouse
[2] = Cell cycle progression; type: cell-based; details: unpublished data
[3] = Water solubility; type: physicochemical
[4] = tested on: B16-F1 cells; test: SRB cytotoxicity assay, B16-F1 melanoma; type: cell-based, mouse; details: read-out: IC50 ± SEM (μM) B16-F1, Table 2, 48 h
[5] = tested on: A375 cells; test: SRB cytotoxicity assay, A375 melanoma; type: cell-based, human; details: read-out: IC50 ± SEM (μM) A375, Table 2, 48 h
[6] = tested on: PPC-1 cells; test: SRB cytotoxicity assay, PPC-1 prostate cancer; type: cell-based, human; details: read-out: IC50 ± SEM (μM) PPC-1, Table 2, 96 h
[7] = tested on: DU 145 cells; test: SRB cytotoxicity assay, DU 145 prostate cancer; type: cell-based, human; details: read-out: IC50 ± SEM (μM) DU 145, Table 2, 96 h
[8] = tested on: CCRF-CEM (Leukemia); test: NCI-60 human tumor cell line screen, CCRF-CEM; type: cell-based; details: read-out: IC50 NCI-60, CCRF-CEM, lowest of the NCI-60 range
[9] = tested on: LNCaP cells; test: SRB cytotoxicity assay, LNCaP prostate cancer; type: cell-based, human; details: read-out: IC50 ± SEM (μM) LNCaP, Table 2, 96 h

| Compound | antiproliferative activity (in words) [1] | further results |
| --- | --- | --- |
| COc1cc(NC(=O)[C@@H]2CSC(c3ccccc3)N2)cc(OC)c1OC (mixture of isomers) [2a, (2RS, 4R)-2-Phenyl-N-(3,4,5-trimethoxyphenyl)thiazolidine-4-carboxamide] | the potency against both cancer cell lines was lost | – |
| COc1cc(NC(=O)[C@@H]2CSC(c3cc(OC)c(OC)c(OC)c3)N2)cc(OC)c1OC (mixture of isomers) [2b, (2RS, 4R)-N,2-bis(3,4,5-trimethoxyphenyl)thiazolidine-4-carboxamide] | the potency against both cancer cell lines was lost | – |
| COc1cc(NC(=O)C2CSC(c3ccccc3)=N2)cc(OC)c1OC (stereo in doubt) [4b, (4R)-2-Phenyl-N-(3,4,5-trimethoxyphenyl)-4,5-dihydrothiazole-4-carboxamide] | – | IC50 ([1]; read-out: IC50 over melanoma and prostate cancer cell lines): 3400 to 38300 nM |
| COc1ccccc1C(=O)c1csc(-c2ccccc2)n1 [8d, (2-Methoxyphenyl)(2-phenylthiazol-4-yl)-methanone] | weak activity against a certain cell lines | – |
| COc1cc(C(=O)c2csc(-c3ccccc3)n2)cc(OC)c1OC [8f, (2-Phenyl-thiazol-4-yl)-(3,4,5-trimethoxy-phenyl)-methanone] | – | cell cycle effect (in words) [2]: significant increase in G2/M phase arrest |
| COc1cc(OC)cc(C(=O)c2csc(-c3ccccc3)n2)c1 [8g, (3,5-Dimethoxyphenyl)(2-phenylthiazol-4-yl)-methanone] | – | fold lower average cytotoxicity than 8f ([1]; against six different cell lines, relative to 8f): 6 fold |
| O=C(c1ccccn1)c1csc(-c2ccccc2)n1 [8i, (2-Phenylthiazol-4-yl)-(pyridin-2-yl)-methanone] | total loss of the anti-cancer activity | – |
| COc1ccc(-c2nc(C(=O)c3cc(OC)c(OC)c(OC)c3)cs2)cc1OC [8o, [2-(3,4-Dimethoxyphenyl)-thiazol-4-yl]-(3,4,5-trimethoxyphenyl)-methanone] | comparable antiproliferative activity | – |
| COc1cc(C(=O)c2csc(-c3ccc([N+](=O)[O-])cc3)n2)cc(OC)c1OC [8p, [2-(4-Nitrophenyl)-thiazol-4-yl]-(3,4,5-trimethoxyphenyl)-methanone] | comparable antiproliferative activity | – |
| COc1cc(C(=O)c2csc(-c3ccc(C#N)cc3)n2)cc(OC)c1OC [8q, 4-[4-(3,4,5-Trimethoxybenzoyl)-thiazol-2-yl]-benzonitrile] | comparable antiproliferative activity | – |
| COc1cc(C(=O)c2csc(-c3ccc(C(=O)O)cc3)n2)cc(OC)c1OC [8r, 4-[4-(3,4,5-Trimethoxybenzoyl)-thiazol-2-yl]-benzoic acid] | total loss of the anti-cancer activity | – |
| COC(=O)c1ccc(-c2nc(C(=O)c3cc(OC)c(OC)c(OC)c3)cs2)cc1 [8s, Methyl-4-[4-(3,4,5-trimethoxybenzoyl)-thiazol-2-yl]-benzoate] | total loss of potency | – |
| COc1cc(C(=O)c2csc(-c3ccc(C(F)(F)F)cc3)n2)cc(OC)c1OC [8t, (2-(4-(Trifluoromethyl)-phenyl)-thiazol-4-yl)(3,4,5-trimethoxyphenyl)-methanone] | comparable antiproliferative activity | – |
| COc1cc(C(=O)c2csc(-c3ncccn3)n2)cc(OC)c1OC [8y, [2-(Pyrimidin-2-yl)-thiazol-4-yl]-(3,4,5-trimethoxyphenyl)-methanone] | kept partial activity against both cancer cells | – |
| COc1cc(NC(=O)c2csc(-c3ccccc3)n2)cc(OC)c1OC [compound 5, 2-Phenyl-N-(3,4,5-trimethoxyphenyl)thiazole-4-carboxamide] | did not show any cytotoxicity against either cancer cell line tested | – |
| COc1cc(C(=O)c2cscn2)cc(OC)c1OC [compound 10, Thiazol-4-yl-(3,4,5-trimethoxy-phenyl)-methanone] | total loss of activity | – |
| O=C(c1cc(O)c(O)c(O)c1)c1csc(-c2ccccc2)n1 [compound 11, (2-Phenyl-thiazol-4-yl)-(3,4,5-trihydroxy-phenyl)-methanone] | complete loss of antiproliferative activity | water solubility (in words) [3]: water soluble |
| (2RS, 4R)-2-phenyl-thiazolidine-4-carboxylic acid hexadecylamide [ATCAA-1] | – | IC50 [4]: 2.2 ± 0.3 µM; IC50 [5]: 2.1 ± 0.2 µM; IC50 [6]: 0.4 ± 0.1 µM; IC50 [7]: 1.7 ± 0.1 µM; IC50 [8]: 124 nM; IC50 [9]: 1 ± 0.1 µM |
